In patent publication US20170202218A1, “Materials for Disinfection Produced by Non-Thermal Plasma” (DREXEL UNIVERSITY, priority 2010, published 2017):

Assays:
[1] = tested on: E. coli; conditions: dispersed for 15 sec, no corona discharge applied
From the text: An agar place of bacterial (containing colonies of 10^5 E. coli) was placed on top of a grounded metal plate.

[2] = tested on: E coli; conditions: in solution, after only 30 seconds; cited from earlier work

SMILES	disinfection of E. coli on agar plate [1]	log reduction in E coli [2]
CCO [alcohol, ethanol]	some spotty effects	
[H]/N=C(\N/C(=N/[H])NCCCCCCNC(=N)NC(=N)Nc1ccc(Cl)cc1)Nc1ccc(Cl)cc1 [chlorhexidine]		3.5 log
